Experimental data as given in US20150359884A1, “MULTI-PHOTON ISOMERISATION OF COMBRETASTATINS AND THEIR USE IN THERAPY” (priority 2011, published 2015).

Tests used:
[1] = Two-photon absorption cross section using reference fluorophore 9-chloroanthracene; format: physicochemical; details: at 620 nm, DCM
Description: Cell images were overlaid using Adobe Photoshop CS3.
Published cross sections for two photon absorption (σ2, the probability of an absorption process or photon interaction) typically show large variations depending on the method of measurement, using either the Z-scan method or a reference fluorophore, and the power range and pulse duration of the laser used for excitation. We have attempted to determine values of σ2 for E-CA4 and E-ACA4 using a reference fluorophore. 9-Chloroanthracene (9CIA) was selected as a standard fluorophore with an appropriate fluorescence spectrum and for which 2PE cross-sections are available. The values of σ2 at 620 nm for E-CA4 and E-CA4F in DCM were determined to be 2.1±0.5 and 2.75±0.6 GM units respectively. […] Values of σ2 at 620 nm for E-ACA and E-DMAC were both 5.7±1.2. These larger values may be consistent with some charge transfer character of the excitation of these compounds.

HeLa cells = assay: Fluorescence lifetime imaging (FLIM) of uptake and intracellular concentration in HeLa cells; details: HeLa cells, 100 μM added
Experimental: Both HeLa and Chinese hamster ovary (CHO) cells were obtained from the European Collection of Cell Cultures. HeLa cells were cultured in MEM medium (Gibco) containing 10% foetal calf serum, penicillin (100 units/mL), streptomycin (100 μg/mL) and glutamine (2 mM). CHO cells were cultured in DMEM (Gibco) with the same additions as for the HeLa cells. For microscopy the adherent cell cultures were grown in 35 mm diameter glass-bottom culture dishes with optical quality glass (MatTek Corporation) and incubated at 37° C. in a humidified atmosphere containing 5% CO2. Human umbilical vein endothelial cells (HUVECs) were obtained from TCS Cellworks. HUVECs were sub-cultured in basal medium (TCS Cellworks) supplemented with antibiotic supplement/amphotericin-B, following the detailed guidelines provided by TCS Cellworks.
The fluorescence lifetime imaging system with multiphoton excitation employed lasers for multiphoton excitation consisting of a Ti:Sapphire laser, tuneable between 700 and 1000 nm and providing ca 180 fs pulses at 76 MHz, and an optical parametric oscillator (OPO) pumped by a second Ti:Sapphire laser source. Using the doubled idler output of the OPO, useful energies (>200 mW) could be obtained between 550 and 640 nm. Samples were excited on the stage of Nikon TE2000U inverted microscope using a water immersion ×60 objective of NA 1.2. Using the various microscope ports it was possible to record the fluorescence in a number of ways. The fluorescence signal at one port was relayed to a spectrometer (Acton 275) and CCD setup (Andor iDUS) so that emission spectra and intensities could be recorded. Alternatively the fluorescence signal could be routed via a second port to a time-correlated single photon counting (TCSPC) system (Becker and Hickl SPC-830) allowing fluorescence lifetime measurements and fluorescence lifetime imaging (FLIM), using Becker and Hickl software (SPCImage) for analysis. In FLIM mode the fluorescence was isolated by a suitable narrowband interference filter (400IU25 together with BG3 (Comar)). […] Two photon cross sections were determined using a reference fluorophore as a two photon standard as described by Mathai et al., employing published values of the two-photon cross section for 9-chloroanthracene.
Images of intracellular distribution of E-combretastatins in cell monolayers were obtained using fluorescence lifetime imaging, in which the rastered excitation laser beam dwells on each pixel for a few milliseconds and at each position records a nanosecond fluorescence lifetime decay curve using the time-correlated single photon counting method. […]
Quantification of fluorophore concentration from intensity measurements is often difficult.

cells = details: typical toxicity assays; cited from earlier work
[2] = room temperature, approximately 10 minutes

COc1ccc(/C=C/c2cc(OC)c(OC)c(OC)c2)cc1O [E-CA4, (E)-1-(3′,4′,5′-Trimethoxyphenyl)-2-(4″-methoxy-3″-hydroxy-phenyl)ethene]
Two photon absorption cross section σ2 [1]: 2.1±0.5 GM units
Intracellular concentration as times the concentration in the medium (HeLa cells): 20-40 times
Intracellular concentration, smaller regions (HeLa cells; [2]): > 4 mM
Intracellular concentration, substantial regions of the cell cytoplasm (HeLa cells; [2]): > 2 mM
Concentrations required to kill cells (cells): micromolar
